In patent US20240325398A1, “COMBINATION THERAPIES” (Infinity Pharmaceuticals, Inc., priority 2014, published 2024):

Columns and labels:
SUDHL6 = experiment: Compound 1 with dexamethasone, CellTiter-Glo viability 72 h, combination index; format: cell-based; details: SUDHL6
Protocol: The effects of Compound 1 with dexamethasone were examined in a panel of cell lines. Cells were cultured and assayed as follows. Compound 1 was serially diluted with cell culture medium and various DMSO concentrations. The top concentration of Compound 1 exposed to cells was 3 uM for cell lines other than WSU-NHL and DOHH2. For WSU-NHL and DOHH2 cell lines, the top concentration of Compound 1 exposed to the cells was 0.3 uM. Dexamethasone was serially diluted in culture media and phosphate buffered saline (PBS). The top concentration of dexamethasone used on cells was 3 uM. Cells were at least 73% viable and were counted and diluted for plating at a density of about 92,000 cell/mL, 130 uL cells per well in 96 well plates for SUDHL6, Karpas 422, SUDHL4, WSU-NHL, RL, and DOHH2 cell lines. The SUDHL10 cell line was plated at a density of about 46,000 cells/mL, 130 uL cells per well in 96 well plates.
Various concentrations of Compound 1 and various combinations of dexamethasone were added to various wells of cells. Single agents (Compound 1 or dexamethasone alone) were also added to some wells of cells. Cells were incubated with compounds for 72 hours. To assay for effects of the compounds on cell viability, a CellTiter-Glo® luminescent cell viability assay (commercially available) was used. To each plate of cells, 100 uL CellTiter-Glo reagent was added, incubated, and luminescence quantified using a […].
The result for cell line SUDHL6 is depicted in FIG. 12 and in Table 12. […] Table 12 depicts combination index (CI) values for different combinations of dexamethasone/Compound 1 concentrations.

SU-DHL-4-epst = experiment: Combination study, ATPLite 72 h, dose matrix (Synergy Score, CI50)
Protocol: Cells are thawed from a liquid nitrogen preserved state. Once cells have been expanded and divide at their expected doubling times, screening begins. Cells are seeded in growth media in either black 1536-well or 384-well tissue culture treated plates. Cells are then equilibrated in assay plates via centrifugation and placed in incubators attached to the Dosing Modules at 37° C. for 24 hours before treatment. […] These Tzero (To) plates are read using ultra-sensitive luminescence on Envision plate readers (Perkin Elmer). Treated assay plates are incubated with compound for 72 hours. After 72 hours, plates are developed for endpoint analysis using ATPLite. All data points are collected via automated processes, quality controlled and analyzed using Zalicus software.
The measure of effect in the experiment can be the inhibition of cellular response relative to the untreated level (vehicle alone). […] The inhibition ranges from 0% at the untreated level to 100% when T=0. Inhibition levels are negative for agents that actually increase levels.
Growth Inhibition (GI) is used as a measure of cell viability. […] A GI reading of 100% represents complete growth inhibition—T72 compound-treated and T0 vehicle signals are matched. […] A GI reading of 200% represents complete death of all cells in the culture well. Compounds reaching an activity plateau of GI 200% are considered cytotoxic. GI is calculated by applying the following test and equation:
Combination analysis data were collected in a 6×6 dose matrix. Synergy is calculated by comparing a combination's response to those of its single compound, against the drug-with-itself dose-additive reference model. Deviations from dose additivity may be assessed visually on an isobologram or numerically with a Combination Index (CI). […] Additive effect is CI=1.0. […] Antagonistic effect is CI>1.0.
To measure combination effects in excess of Loewe additivity, a scalar measure to characterize the strength of synergistic interaction termed the Synergy Score is devised. The Synergy Score is calculated as:
The fractional inhibition for each component agent and combination point in the matrix is calculated relative to the median of all vehicle-treated control wells. The Synergy Score equation integrates the experimentally-observed activity volume at each point in the matrix in excess of a model surface numerically derived from the activity of the component agents using the Loewe model for additivity. Additional terms in the Synergy Score equation (above) are used to normalize for various dilution factors used for individual agents and to allow for comparison of synergy scores across an entire experiment. The inclusion of positive inhibition gating or an Idata multiplier removes noise near the zero effect level, and biases results for synergistic interactions at that occur at high activity levels.
Loewe Volume (Loewe Vol) is used to assess the overall magnitude of the combination interaction in excess of the Loewe additivity model. Loewe Volume is particularly useful when distinguishing synergistic increases in a phenotypic activity (positive Loewe Volume) versus synergistic antagonisms (negative Loewe Volume). […] This model defines additivity as a non-synergistic combination interaction where the combination dose matrix surface should be indistinguishable from either drug crossed with itself. The calculation for Loewe additivity is:

CLL = experiment: Clinical trial, Compound 1 monotherapy in a patient with CLL; format: in vivo, human; details: one CLL patient

SMILES: C[C@H](Nc1ncnc2[nH]cnc12)c1cc2cccc(Cl)c2c(=O)n1-c1ccccc1 [Compound 1, (S)-3-(1-((9H-purin-6-yl)amino)ethyl)-8-chloro-2-phenylisoquinolin-1(2H)-one]
- combination index (CI) (SUDHL6; Compound 1 1.4 nM + Dexamethasone 1.4 nM): E (E = >1)
- combination index (CI) (SUDHL6; Compound 1 1.4 nM + Dexamethasone 4.1 nM): E (E = >1)
- combination index (CI) (SUDHL6; Compound 1 1.4 nM + Dexamethasone 12.3 nM): E (E = >1)
- combination index (CI) (SUDHL6; Compound 1 1.4 nM + Dexamethasone 37 nM): E (E = >1)
- combination index (CI) (SUDHL6; Compound 1 1.4 nM + Dexamethasone 111.1 nM): A (A = 0.0001 to <0.3)
- combination index (CI) (SUDHL6; Compound 1 1.4 nM + Dexamethasone 333.3 nM): A (A = 0.0001 to <0.3)
- combination index (CI) (SUDHL6; Compound 1 1.4 nM + Dexamethasone 1000 nM): A (A = 0.0001 to <0.3)
- combination index (CI) (SUDHL6; Compound 1 1.4 nM + Dexamethasone 3000 nM): A (A = 0.0001 to <0.3)
- combination index (CI) (SUDHL6; Compound 1 4.1 nM + Dexamethasone 1.4 nM): E (E = >1)
- combination index (CI) (SUDHL6; Compound 1 4.1 nM + Dexamethasone 4.1 nM): B (B = 0.3 to <0.5)
- combination index (CI) (SUDHL6; Compound 1 4.1 nM + Dexamethasone 12.3 nM): E (E = >1)
- combination index (CI) (SUDHL6; Compound 1 4.1 nM + Dexamethasone 37 nM): C (C = 0.5 to <0.7)
- combination index (CI) (SUDHL6; Compound 1 4.1 nM + Dexamethasone 111.1 nM): A (A = 0.0001 to <0.3)
- combination index (CI) (SUDHL6; Compound 1 4.1 nM + Dexamethasone 333.3 nM): A (A = 0.0001 to <0.3)
- combination index (CI) (SUDHL6; Compound 1 4.1 nM + Dexamethasone 1000 nM): A (A = 0.0001 to <0.3)
- combination index (CI) (SUDHL6; Compound 1 4.1 nM + Dexamethasone 3000 nM): A (A = 0.0001 to <0.3)
- combination index (CI) (SUDHL6; Compound 1 12.3 nM + Dexamethasone 1.4 nM): E (E = >1)
- combination index (CI) (SUDHL6; Compound 1 12.3 nM + Dexamethasone 4.1 nM): E (E = >1)
- combination index (CI) (SUDHL6; Compound 1 12.3 nM + Dexamethasone 12.3 nM): E (E = >1)
- combination index (CI) (SUDHL6; Compound 1 12.3 nM + Dexamethasone 37 nM): E (E = >1)
- combination index (CI) (SUDHL6; Compound 1 12.3 nM + Dexamethasone 111.1 nM): A (A = 0.0001 to <0.3)
- combination index (CI) (SUDHL6; Compound 1 12.3 nM + Dexamethasone 333.3 nM): A (A = 0.0001 to <0.3)
- combination index (CI) (SUDHL6; Compound 1 12.3 nM + Dexamethasone 1000 nM): A (A = 0.0001 to <0.3)
- combination index (CI) (SUDHL6; Compound 1 12.3 nM + Dexamethasone 3000 nM): A (A = 0.0001 to <0.3)
- combination index (CI) (SUDHL6; Compound 1 37 nM + Dexamethasone 1.4 nM): E (E = >1)
- combination index (CI) (SUDHL6; Compound 1 37 nM + Dexamethasone 4.1 nM): E (E = >1)
- combination index (CI) (SUDHL6; Compound 1 37 nM + Dexamethasone 12.3 nM): E (E = >1)
- combination index (CI) (SUDHL6; Compound 1 37 nM + Dexamethasone 37 nM): E (E = >1)
- combination index (CI) (SUDHL6; Compound 1 37 nM + Dexamethasone 111.1 nM): A (A = 0.0001 to <0.3)
- combination index (CI) (SUDHL6; Compound 1 37 nM + Dexamethasone 333.3 nM): A (A = 0.0001 to <0.3)
- combination index (CI) (SUDHL6; Compound 1 37 nM + Dexamethasone 1000 nM): A (A = 0.0001 to <0.3)
- combination index (CI) (SUDHL6; Compound 1 37 nM + Dexamethasone 3000 nM): A (A = 0.0001 to <0.3)
- combination index (CI) (SUDHL6; Compound 1 111.1 nM + Dexamethasone 1.4 nM): E (E = >1)
- combination index (CI) (SUDHL6; Compound 1 111.1 nM + Dexamethasone 4.1 nM): E (E = >1)
- combination index (CI) (SUDHL6; Compound 1 111.1 nM + Dexamethasone 12.3 nM): E (E = >1)
- combination index (CI) (SUDHL6; Compound 1 111.1 nM + Dexamethasone 37 nM): E (E = >1)
- combination index (CI) (SUDHL6; Compound 1 111.1 nM + Dexamethasone 111.1 nM): A (A = 0.0001 to <0.3)
- combination index (CI) (SUDHL6; Compound 1 111.1 nM + Dexamethasone 333.3 nM): A (A = 0.0001 to <0.3)
- combination index (CI) (SUDHL6; Compound 1 111.1 nM + Dexamethasone 1000 nM): A (A = 0.0001 to <0.3)
- combination index (CI) (SUDHL6; Compound 1 111.1 nM + Dexamethasone 3000 nM): A (A = 0.0001 to <0.3)
- combination index (CI) (SUDHL6; Compound 1 333.3 nM + Dexamethasone 1.4 nM): E (E = >1)
- combination index (CI) (SUDHL6; Compound 1 333.3 nM + Dexamethasone 4.1 nM): E (E = >1)
- combination index (CI) (SUDHL6; Compound 1 333.3 nM + Dexamethasone 12.3 nM): E (E = >1)
- combination index (CI) (SUDHL6; Compound 1 333.3 nM + Dexamethasone 37 nM): E (E = >1)
- combination index (CI) (SUDHL6; Compound 1 333.3 nM + Dexamethasone 111.1 nM): A (A = 0.0001 to <0.3)
- combination index (CI) (SUDHL6; Compound 1 333.3 nM + Dexamethasone 333.3 nM): A (A = 0.0001 to <0.3)
- combination index (CI) (SUDHL6; Compound 1 333.3 nM + Dexamethasone 1000 nM): A (A = 0.0001 to <0.3)
- combination index (CI) (SUDHL6; Compound 1 333.3 nM + Dexamethasone 3000 nM): A (A = 0.0001 to <0.3)
- combination index (CI) (SUDHL6; Compound 1 1000 nM + Dexamethasone 1.4 nM): E (E = >1)
- combination index (CI) (SUDHL6; Compound 1 1000 nM + Dexamethasone 4.1 nM): B (B = 0.3 to <0.5)
- combination index (CI) (SUDHL6; Compound 1 1000 nM + Dexamethasone 12.3 nM): E (E = >1)
- combination index (CI) (SUDHL6; Compound 1 1000 nM + Dexamethasone 37 nM): E (E = >1)
- combination index (CI) (SUDHL6; Compound 1 1000 nM + Dexamethasone 111.1 nM): A (A = 0.0001 to <0.3)
- combination index (CI) (SUDHL6; Compound 1 1000 nM + Dexamethasone 333.3 nM): A (A = 0.0001 to <0.3)
- combination index (CI) (SUDHL6; Compound 1 1000 nM + Dexamethasone 1000 nM): A (A = 0.0001 to <0.3)
- combination index (CI) (SUDHL6; Compound 1 1000 nM + Dexamethasone 3000 nM): A (A = 0.0001 to <0.3)
- combination index (CI) (SUDHL6; Compound 1 3000 nM + Dexamethasone 1.4 nM): A (A = 0.0001 to <0.3)
- combination index (CI) (SUDHL6; Compound 1 3000 nM + Dexamethasone 4.1 nM): A (A = 0.0001 to <0.3)
- combination index (CI) (SUDHL6; Compound 1 3000 nM + Dexamethasone 12.3 nM): A (A = 0.0001 to <0.3)
- combination index (CI) (SUDHL6; Compound 1 3000 nM + Dexamethasone 37 nM): A (A = 0.0001 to <0.3)
- combination index (CI) (SUDHL6; Compound 1 3000 nM + Dexamethasone 111.1 nM): A (A = 0.0001 to <0.3)
- combination index (CI) (SUDHL6; Compound 1 3000 nM + Dexamethasone 333.3 nM): A (A = 0.0001 to <0.3)
- combination index (CI) (SUDHL6; Compound 1 3000 nM + Dexamethasone 1000 nM): A (A = 0.0001 to <0.3)
- combination index (CI) (SUDHL6; Compound 1 3000 nM + Dexamethasone 3000 nM): A (A = 0.0001 to <0.3)
- CI50 growth inhibition (SU-DHL-4-epst; combination with Dexamethasone): S (S=0.01 to <0.5)
- CI50 inhibition (SU-DHL-4-epst; combination with Dexamethasone): S (S=0.01 to <0.5)
- Synergy Score growth inhibition (SU-DHL-4-epst; combination with Dexamethasone): A3 (A3=>3)
- Synergy Score inhibition (SU-DHL-4-epst; combination with Dexamethasone): A3 (A3=>3)
- CI50 growth inhibition (SU-DHL-4-epst; combination with LEE011): S (S=0.01 to <0.5)
- CI50 inhibition (SU-DHL-4-epst; combination with LEE011): S (S=0.01 to <0.5)
- Synergy Score growth inhibition (SU-DHL-4-epst; combination with LEE011): A2 (A2=1 to <3)
- Synergy Score inhibition (SU-DHL-4-epst; combination with LEE011): A2 (A2=1 to <3)
- CI50 growth inhibition (SU-DHL-4-epst; combination with PCI-32765): S (S=0.01 to <0.5)
- CI50 inhibition (SU-DHL-4-epst; combination with PCI-32765): S (S=0.01 to <0.5)
- Synergy Score growth inhibition (SU-DHL-4-epst; combination with PCI-32765): A3 (A3=>3)
- Synergy Score inhibition (SU-DHL-4-epst; combination with PCI-32765): A3 (A3=>3)
- CI50 growth inhibition (SU-DHL-4-epst; combination with PD-0332991): S (S=0.01 to <0.5)
- CI50 inhibition (SU-DHL-4-epst; combination with PD-0332991): S (S=0.01 to <0.5)
- Synergy Score growth inhibition (SU-DHL-4-epst; combination with PD-0332991): A3 (A3=>3)
- Synergy Score inhibition (SU-DHL-4-epst; combination with PD-0332991): A2 (A2=1 to <3)
- Absolute lymphocyte count (ALC) (CLL; 25 mg bid, C5D1, ALC=257 at C1D1): 134
- clinical response (CLL; 25 mg bid, after C7 (cycle 7), STK11 copy loss detected at C5D1): progressed
- clinical response (CLL; monotherapy 25 mg bid, C3D1 (cycle 3, day 1)): partial response
